For test [1], the system named is N-methyl-D-aspartate (NMDA) receptor currents. The test is described as follows: alcohol withdrawal hyperresponsiveness of NMDA-evoked currents in lumbar spinal cord slice motor neurons. The format is cell-based, rat. An excerpt:
Spinal cords were taken from young rats, and slices of these cords were made and placed in artificial cerebrospinal fluid for patch clamp electrophysiological analysis, to characterize the ability of γPKC peptides to mediate alcohol withdrawal hyperresponsiveness of N-methyl-D-aspartate (NMDA) receptor currents. FIG. 7A is a schematic diagram of the technique, where a lumbar spinal cord slice 10 is shown. The placement of a recording electrode 12 and a pipette 14 for application of NMDA relative to a motor neuron 16 is illustrated.
Sprague-Dawley rats at postnatal day 7-10 were anesthetized with halothane, decapitated, and the spinal cords were quickly removed. Slices […] thick were sectioned from the lumbar region. Whole cell voltage clamp recordings were made from visually-identified motor neurons using infrared video microscopy, a 60× water immersion lens, and a MultiClamp 700A patch clamp amplifier. Cells were held at a holding potential of −60 mV in artificial cerebrospinal fluid (ACSF) containing bicuculline methiodide ([…]), strychnine ([…]), and tetrodotoxin ([…]). Postsynaptic currents were evoked by direct pressure application of 2 mM N-methyl-D-aspartate (NMDA) from a pipette positioned near the recorded cell at 1-2 min intervals, as illustrated in FIG. 7A. The area of evoked currents during and following 100 mM ethanol (EtOH) application was measured and normalized to the average baseline current area during the 10 minutes preceding EtOH application. Data are expressed as mean +/−SEM: Statistical significance was determined by one-way ANOVA followed by Dunn's or Tukey's multiple comparison test with significance set at p<0.05.

The subject of test [2] is postnatal day 7 rats. The test is described as follows: naloxone-precipitated morphine withdrawal, mechanical threshold and thermal paw withdrawal latency in vivo. The following applies: 10 μM in 5 μl intrathecally prior to morphine 1 mg/kg s.c.; naloxone 0.25 mg/kg 30 min after morphine. Further details: species or system rat. As to the method: In vivo studies on opiate withdrawal allodynia and hyperalgesia were conducted using postnatal day 7 rats. As described in Example 2, postnatal day 7 rats were given morphine subcutaneously followed 30 minutes later by naloxone or saline. Mechanical threshold using von Frey filaments to produce the flexion withdrawal response of the hind paw and thermal stimulation to measure the paw withdrawal latency were measured as described in Example 2.
FIG. 5A illustrates a treatment protocol where rat pups were given a PKC antagonist intrathecally (e.g., directly into the cerebrospinal fluid surrounding the spinal cord) prior to subcutaneous morphine delivery. Thirty minutes after morphine delivery, naloxone was administered, followed by mechanical allodynia and thermal hyperalgesia testing (as described in Example 2).
Postnatal day 7 Sprague-Dawley rats (Charles River Laboratories) of both sexes were used. For all behavioural experiments rats were maintained at nesting temperature with overhead heatlamps.
To measure mechanical thresholds, rats were placed on an elevated wire mesh (2 mm openings). Von Frey hairs (Stoelting Co., WoodDale, Ill., USA) were used to elicit a cutaneous flexion withdrawal response as described by Fitzgerald et al. (Fitzgerald M., et al., PAIN […] INFANTS, CHILDREN AND ADOLESCENTS; Schetchter and Yaster, Eds., pp 11-32, Williams and Williams (Baltimore, Md.) (1993). Von Frey hairs of increasing intensity were applied three times to the plantar surface of the left hind paw until a paw withdrawal was elicited. The lowest intensity Von Frey hair required to produce a withdrawal reflex was recorded as the response threshold to a low-intensity mechanical stimulus.
Thermal paw withdrawal latencies were measured using the Ugo Basile Plantar Testing apparatus (Stoelting Co., WoodDale, Ill., USA). Briefly, postnatal day 7 rats were placed under inverted Plexiglas enclosures and the plantar surface of the left hindpaw was heated from below with the IR intensity of the lamp set at 30. Two baseline thermal response latency measures were collected prior to morphine administration with a cut-off of 20 seconds enlisted to prevent tissue damage.
Postnatal day 7 rats were administered 1 mg/kg morphine sulfate (Sigma) subcutaneously in 50 μl saline. Mechanical thresholds were measured 15 minutes later to establish analgesia. Rats were returned to their dam. At 30 or 120 minutes post morphine, rats were administered 0.25 mg/kg naloxone (Sigma) subcutaneously in 50 μl saline. Mechanical thresholds and thermal paw withdrawal latencies were measured in 10 minute intervals. Tat conjugated peptide inhibitors specific to the ε (εV1-2; SEQ ID NO:1, 10 μM) and γ ([…]; SEQ ID NO:2, 10 μM) isoforms of PKC, Tat carrier (10 μM), or saline were administered in 5 μl volumes intrathecally via direct lumbar puncture using a sterile 29 gauge 3/10 cc insulin syringe in rats lightly anesthetized with halothane. To allow for complete recovery from anesthetic, animals were administered peptides or control solutions 30 minutes prior to naloxone.
An unpaired T-test was used to determine the significance of post-naloxone measures from baseline measures. Significance between treatment groups for PKC inhibitor studies both in vivo and in vitro was determined by one way analysis of variance (ANOVA) followed by a post-hoc Bonferroni analysis. P-values<0.05 were considered significant. All statistical analysis was done with GraphPad Prism version 3.02.

Ends that are not written are not given here.

In the case of “RLVLAS (also: Tat peptide conjugate; listed as Homo sapiens) [γV5-3]”, the “block of ethanol withdrawal hyperresponsiveness of NMDA-evoked currents” value in test [1] (2 nM peptide, ethanol 100 mM 15 minutes then wash) was “did not completely block withdrawal hyperresponsiveness”; in test [1] (5-10 nM peptide, ethanol 100 mM then wash), “effectively blocked ethanol withdrawal hyperresponsiveness”. Further, the “block of naloxone-precipitated morphine withdrawal allodynia and hyperalgesia” value in test [2] was “had a smaller blocking effect”.
